In the NIST ThermoML archive (doi:10.1016/j.tca.2014.03.043):
Values joined by “and” are separate entries in the source; they are usually repeats but may differ in a detail not shown here. Equal values may be shown once.

Test: molar heat capacity at constant pressure
Settings: 101.33 kPa, Liquid, Small sample (50 mg) DSC

C=CCO [2-propenol]
Settings	molar heat capacity at constant pressure
273.41 K	134.94 J/K/mol and 134.61 J/K/mol
278.52 K	137.19 J/K/mol and 137.35 J/K/mol
283.62 K	139.43 J/K/mol and 139.18 J/K/mol
288.72 K	141.93 J/K/mol and 141.68 J/K/mol
293.83 K	144.34 J/K/mol and 144.17 J/K/mol
298.93 K	146.67 J/K/mol and 146.5 J/K/mol
304.04 K	149.16 J/K/mol and 149.08 J/K/mol
309.14 K	152.32 J/K/mol and 151.82 J/K/mol
314.25 K	154.82 J/K/mol and 154.4 J/K/mol
319.35 K	157.23 J/K/mol and 157.06 J/K/mol
324.46 K	160.14 J/K/mol and 160.3 J/K/mol

OCC1CCCCC1 [cyclohexylmethanol]
Settings	molar heat capacity at constant pressure
258.09 K	199.13 J/K/mol and 198.88 J/K/mol
263.2 K	202.87 J/K/mol and 202.54 J/K/mol
268.3 K	207.03 J/K/mol and 206.61 J/K/mol
273.41 K	211.52 J/K/mol and 210.94 J/K/mol
278.51 K	215.68 J/K/mol and 215.18 J/K/mol
283.62 K	220.83 J/K/mol and 219.83 J/K/mol
288.72 K	225.32 J/K/mol and 224.74 J/K/mol
293.83 K	230.56 J/K/mol and 229.98 J/K/mol
298.93 K	236.46 J/K/mol and 235.55 J/K/mol
304.04 K	242.28 J/K/mol and 241.62 J/K/mol
309.14 K	247.94 J/K/mol and 247.36 J/K/mol
314.25 K	254.26 J/K/mol and 253.34 J/K/mol
319.35 K	260.24 J/K/mol and 259.49 J/K/mol
324.46 K	265.98 J/K/mol and 265.56 J/K/mol
329.57 K	271.38 J/K/mol and 270.55 J/K/mol
334.67 K	276.54 J/K/mol and 275.87 J/K/mol
339.77 K	281.78 J/K/mol and 280.86 J/K/mol
344.88 K	287.35 J/K/mol and 286.52 J/K/mol
349.98 K	292.34 J/K/mol and 291.51 J/K/mol
355.09 K	296.83 J/K/mol and 296.33 J/K/mol

OCCC1CCCCC1 [2-cyclohexylethanol]
Settings	molar heat capacity at constant pressure
253.5 K	222 J/K/mol and 223.33 J/K/mol
256.05 K	226.07 J/K/mol and 226.32 J/K/mol
260.65 K	229.4 J/K/mol and 229.73 J/K/mol
265.75 K	233.72 J/K/mol and 233.97 J/K/mol
270.86 K	238.29 J/K/mol and 238.21 J/K/mol
275.96 K	242.12 J/K/mol and 242.2 J/K/mol
281.07 K	246.19 J/K/mol and 246.44 J/K/mol
286.17 K	251.6 J/K/mol and 251.26 J/K/mol
291.28 K	256.67 J/K/mol and 256.42 J/K/mol
296.38 K	261.91 J/K/mol and 262.07 J/K/mol
301.48 K	267.56 J/K/mol and 266.98 J/K/mol
306.59 K	273.13 J/K/mol and 273.21 J/K/mol
311.7 K	278.7 J/K/mol and 279.03 J/K/mol
316.81 K	284.35 J/K/mol
321.91 K	290.17 J/K/mol and 289.93 J/K/mol
327.01 K	295.5 J/K/mol and 295.58 J/K/mol
332.12 K	301.15 J/K/mol and 300.82 J/K/mol
337.22 K	307.39 J/K/mol and 306.64 J/K/mol
342.33 K	313.87 J/K/mol and 312.71 J/K/mol
347.43 K	318.61 J/K/mol and 317.95 J/K/mol
352.54 K	323.27 J/K/mol and 322.6 J/K/mol

OCCCC1CCCCC1 [3-cyclohexyl-1-propanol]
Settings	molar heat capacity at constant pressure
258.09 K	254.42 J/K/mol and 254.84 J/K/mol
263.2 K	258.91 J/K/mol and 258.66 J/K/mol
268.3 K	263.07 J/K/mol and 262.65 J/K/mol
273.41 K	267.64 J/K/mol and 267.48 J/K/mol
278.51 K	272.22 J/K/mol and 271.97 J/K/mol
283.62 K	277.37 J/K/mol and 277.12 J/K/mol
288.72 K	282.28 J/K/mol
293.83 K	288.01 J/K/mol and 287.76 J/K/mol
298.93 K	293.5 J/K/mol and 293.33 J/K/mol
304.04 K	299.74 J/K/mol
309.14 K	305.72 J/K/mol and 305.64 J/K/mol
314.25 K	311.63 J/K/mol and 311.54 J/K/mol
319.35 K	317.61 J/K/mol and 317.7 J/K/mol
324.46 K	323.6 J/K/mol and 323.85 J/K/mol
329.56 K	330.5 J/K/mol and 330 J/K/mol
334.67 K	335.9 J/K/mol and 336.24 J/K/mol
339.77 K	342.31 J/K/mol and 342.39 J/K/mol
344.88 K	348.46 J/K/mol and 348.63 J/K/mol
349.98 K	354.28 J/K/mol and 354.61 J/K/mol
355.09 K	360.35 J/K/mol and 360.02 J/K/mol
